One assay has as its target STK23 (MSSK1) (Homo sapiens, UniProt Q9UPE1). The assay can be described thus: SelectScreen kinase profiling, ZLYTE. Format: biochemical. From the text: (§1) Kinase Technology % Inhibition Avg Kinase Technology % Inhibition Avg
Another assay addresses PIM3 (Homo sapiens, UniProt Q86V86). Nature of the assay: SelectScreen kinase profiling, ZLYTE. In kind it is biochemical. The following applies: PIM3, 10 µM.
Another assay deals with KIT D816V (Homo sapiens, UniProt P10721, D816V). The assay can be described thus: SelectScreen kinase profiling, LanthaScreen binding. In general terms: Time-resolved FRET reads energy transfer from a long-lived donor to a nearby acceptor.
The next assay deals with CDC42 BPG (MRCKG) (Homo sapiens, UniProt Q6DT37). The assay can be described thus: SelectScreen kinase profiling, ZLYTE. Format: biochemical.
Another assay deals with RET G691S (Homo sapiens, UniProt P07949, G691S). Nature of the assay: SelectScreen kinase profiling, LanthaScreen binding.
The next assay deals with MAP4K2 (GCK) (Homo sapiens, UniProt Q12851). Nature of the assay: SelectScreen kinase profiling, ZLYTE. Format: biochemical.
A further assay has as its target CDC42 BPB (MRCKB) (Homo sapiens, UniProt Q9Y5S2). The assay can be described thus: SelectScreen kinase profiling, ZLYTE. In kind it is biochemical.
For the next assay, the target named is DAPK2 (Homo sapiens, UniProt Q9UIK4). The assay can be described thus: SelectScreen kinase profiling, LanthaScreen binding. The following applies: DAPK2, 10 µM.
In the next assay the target is FLT3 (Homo sapiens, UniProt P36888). Nature of the assay: SelectScreen kinase profiling, ZLYTE. In kind it is biochemical. The following applies: FLT3, 10 µM.
Another assay deals with FGFR3 V555M (Homo sapiens, UniProt P22607, V555M). The assay can be described thus: SelectScreen kinase profiling, ZLYTE. Format: biochemical.
The next assay addresses MAP3K10 (MLK2) (Homo sapiens, UniProt Q02779). Nature of the assay: SelectScreen kinase profiling, LanthaScreen binding.
In another assay the target is ABL1 (Homo sapiens, UniProt P00519). The assay can be described thus: SelectScreen kinase profiling, ZLYTE. Format: biochemical. The following applies: ABL1, 10 µM.
The next assay addresses NEK7 (Homo sapiens, UniProt Q8TDX7). Nature of the assay: SelectScreen kinase profiling, ZLYTE. In kind it is biochemical. The following applies: NEK7, 10 µM.
The target in the next assay is MAPK1 (ERK2) (Homo sapiens, UniProt P28482). The assay can be described thus: SelectScreen kinase profiling, ZLYTE. In kind it is biochemical.
The target of a further assay is HUNK (Homo sapiens, UniProt P57058). Nature of the assay: SelectScreen kinase profiling, LanthaScreen binding.
For another assay, the target named is T1, PLK4 (Homo sapiens, UniProt O00444).
T1 sequence (O00444 1-970): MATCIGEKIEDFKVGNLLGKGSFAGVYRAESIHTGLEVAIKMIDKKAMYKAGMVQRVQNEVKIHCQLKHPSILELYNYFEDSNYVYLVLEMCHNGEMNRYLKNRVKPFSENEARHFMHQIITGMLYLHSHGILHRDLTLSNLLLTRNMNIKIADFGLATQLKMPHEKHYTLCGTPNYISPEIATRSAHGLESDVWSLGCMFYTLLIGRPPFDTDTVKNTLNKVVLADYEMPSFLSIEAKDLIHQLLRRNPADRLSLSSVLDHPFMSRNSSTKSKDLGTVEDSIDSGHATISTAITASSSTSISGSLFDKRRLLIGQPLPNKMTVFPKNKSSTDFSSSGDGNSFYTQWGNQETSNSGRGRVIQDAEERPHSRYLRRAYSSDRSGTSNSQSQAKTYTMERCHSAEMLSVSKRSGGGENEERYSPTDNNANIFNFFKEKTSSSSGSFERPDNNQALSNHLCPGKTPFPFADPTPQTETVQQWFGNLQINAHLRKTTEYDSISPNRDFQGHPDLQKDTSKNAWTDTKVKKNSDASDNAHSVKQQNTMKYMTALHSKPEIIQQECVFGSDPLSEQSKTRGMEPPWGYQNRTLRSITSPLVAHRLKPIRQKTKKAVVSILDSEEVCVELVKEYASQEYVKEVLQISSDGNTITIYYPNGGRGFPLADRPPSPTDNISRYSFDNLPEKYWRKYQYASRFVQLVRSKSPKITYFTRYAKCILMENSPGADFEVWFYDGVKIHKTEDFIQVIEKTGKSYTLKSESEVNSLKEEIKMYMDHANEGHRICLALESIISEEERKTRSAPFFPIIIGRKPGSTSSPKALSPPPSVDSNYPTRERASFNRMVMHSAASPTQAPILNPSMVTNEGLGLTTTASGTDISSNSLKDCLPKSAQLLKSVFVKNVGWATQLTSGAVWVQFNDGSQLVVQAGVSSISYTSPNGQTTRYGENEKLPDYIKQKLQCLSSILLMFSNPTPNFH
The assay is described as above. The following applies: PLK4, 10 µM.

Another assay has as its target FGFR1 V561M (Homo sapiens, UniProt P11362, V561M). The description is as above.
Assay [1] addresses MAP3K7/MAP3K7IP1 (TAK1-TAB1) (Homo sapiens, UniProt O43318). The assay is described as above.
A further assay deals with ADCK3 (Homo sapiens, UniProt Q8NI60). The description is as above. The following applies: ADCK3, 10 µM.
Text: as §1
STK23 (MSSK1) ZLYTE 59 TGFBR1 (ALK5) LanthaScreen 85
STK24 (MST3) ZLYTE 85 TGFBR2 LanthaScreen 77
STK25 (YSK1) ZLYTE 45 TLK1 LanthaScreen 4
STK3 (MST2) ZLYTE 77 TLK2 LanthaScreen 33
STK32B (YANK2) LanthaScreen 61 TNIK LanthaScreen 15
STK32C (YANK3) LanthaScreen 62 TNK1 ZLYTE 94
STK33 LanthaScreen 81 TNK2 (ACK) LanthaScreen 71
STK38 (NDR) LanthaScreen 85 TTK LanthaScreen 54
STK38L (NDR2) LanthaScreen 59 TXK ZLYTE 94
STK39 (STLK3) LanthaScreen 38 TYK2 ZLYTE 99
STK4 (MST1) ZLYTE 93 TYRO3 (RSE) ZLYTE 92
SYK ZLYTE 98 ULK1 LanthaScreen 80
TAOK1 LanthaScreen 82 ULK2 LanthaScreen 56
TAOK2 (TAO1) ZLYTE 87 ULK3 LanthaScreen 5
TAOK3 (JIK) LanthaScreen 25 VRK2 LanthaScreen 32
TBK1 ZLYTE 99 WEE1 LanthaScreen 75
TEC LanthaScreen -9 WNK1 LanthaScreen 2
TEK (Tie2) ZLYTE 99 WNK2 LanthaScreen 1
TEK (TIE2) R849W LanthaScreen -5 WNK3 LanthaScreen 7
TEK (TIE2) Y897S ZLYTE 80 ZAK LanthaScreen 77
TESK1 LanthaScreen 37 ZAP70 ZLYTE 24
cleavage (Thermo Fisher Scientific, USA)

Another assay has as its target AKT2 (PKB beta) (Homo sapiens, UniProt P31751). Nature of the assay: SelectScreen kinase profiling, ZLYTE. Format: biochemical.

Sequence of CDC42 BPB (MRCKB) (Q9Y5S2 whole entry): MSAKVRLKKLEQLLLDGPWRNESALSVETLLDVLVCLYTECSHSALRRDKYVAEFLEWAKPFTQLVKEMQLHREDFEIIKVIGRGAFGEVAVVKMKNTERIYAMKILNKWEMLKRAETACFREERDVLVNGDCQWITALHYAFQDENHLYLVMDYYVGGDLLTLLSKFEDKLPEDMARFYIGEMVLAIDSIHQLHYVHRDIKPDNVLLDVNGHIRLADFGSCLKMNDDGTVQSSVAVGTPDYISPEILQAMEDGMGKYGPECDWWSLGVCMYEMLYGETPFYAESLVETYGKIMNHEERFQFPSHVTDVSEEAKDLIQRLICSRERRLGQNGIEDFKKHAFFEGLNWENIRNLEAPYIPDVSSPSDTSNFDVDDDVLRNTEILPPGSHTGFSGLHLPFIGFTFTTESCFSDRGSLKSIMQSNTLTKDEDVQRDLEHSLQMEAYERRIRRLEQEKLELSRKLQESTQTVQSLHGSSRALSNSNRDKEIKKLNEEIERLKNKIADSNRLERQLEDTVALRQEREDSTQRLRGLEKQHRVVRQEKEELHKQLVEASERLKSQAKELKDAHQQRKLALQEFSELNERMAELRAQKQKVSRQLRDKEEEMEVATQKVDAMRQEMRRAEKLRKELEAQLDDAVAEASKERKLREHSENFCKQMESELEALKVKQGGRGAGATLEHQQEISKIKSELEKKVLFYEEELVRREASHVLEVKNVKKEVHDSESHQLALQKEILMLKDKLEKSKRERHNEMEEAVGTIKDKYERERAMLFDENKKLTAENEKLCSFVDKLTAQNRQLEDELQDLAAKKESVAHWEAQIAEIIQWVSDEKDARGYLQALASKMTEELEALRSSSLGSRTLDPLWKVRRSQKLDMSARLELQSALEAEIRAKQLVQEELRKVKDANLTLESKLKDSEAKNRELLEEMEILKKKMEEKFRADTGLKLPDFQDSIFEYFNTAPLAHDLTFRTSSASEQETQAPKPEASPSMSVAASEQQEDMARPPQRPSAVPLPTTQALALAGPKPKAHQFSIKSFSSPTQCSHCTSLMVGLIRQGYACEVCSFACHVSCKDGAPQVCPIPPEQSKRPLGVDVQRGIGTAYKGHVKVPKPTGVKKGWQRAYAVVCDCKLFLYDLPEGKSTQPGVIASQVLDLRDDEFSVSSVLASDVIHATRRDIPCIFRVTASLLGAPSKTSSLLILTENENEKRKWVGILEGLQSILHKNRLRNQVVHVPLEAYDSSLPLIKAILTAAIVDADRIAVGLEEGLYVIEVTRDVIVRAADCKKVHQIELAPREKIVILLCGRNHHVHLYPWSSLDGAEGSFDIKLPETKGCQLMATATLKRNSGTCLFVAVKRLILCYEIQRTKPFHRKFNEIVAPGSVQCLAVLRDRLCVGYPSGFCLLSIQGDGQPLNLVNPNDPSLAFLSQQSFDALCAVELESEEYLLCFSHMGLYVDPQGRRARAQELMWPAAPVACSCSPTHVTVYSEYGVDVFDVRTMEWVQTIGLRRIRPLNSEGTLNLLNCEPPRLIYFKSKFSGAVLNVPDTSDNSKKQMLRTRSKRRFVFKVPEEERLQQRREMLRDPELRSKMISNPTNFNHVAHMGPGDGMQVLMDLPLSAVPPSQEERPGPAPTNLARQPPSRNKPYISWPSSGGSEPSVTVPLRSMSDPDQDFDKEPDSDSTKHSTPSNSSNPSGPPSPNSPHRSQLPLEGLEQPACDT
Sequence of FGFR1 V561M (P11362 22-822 V561M): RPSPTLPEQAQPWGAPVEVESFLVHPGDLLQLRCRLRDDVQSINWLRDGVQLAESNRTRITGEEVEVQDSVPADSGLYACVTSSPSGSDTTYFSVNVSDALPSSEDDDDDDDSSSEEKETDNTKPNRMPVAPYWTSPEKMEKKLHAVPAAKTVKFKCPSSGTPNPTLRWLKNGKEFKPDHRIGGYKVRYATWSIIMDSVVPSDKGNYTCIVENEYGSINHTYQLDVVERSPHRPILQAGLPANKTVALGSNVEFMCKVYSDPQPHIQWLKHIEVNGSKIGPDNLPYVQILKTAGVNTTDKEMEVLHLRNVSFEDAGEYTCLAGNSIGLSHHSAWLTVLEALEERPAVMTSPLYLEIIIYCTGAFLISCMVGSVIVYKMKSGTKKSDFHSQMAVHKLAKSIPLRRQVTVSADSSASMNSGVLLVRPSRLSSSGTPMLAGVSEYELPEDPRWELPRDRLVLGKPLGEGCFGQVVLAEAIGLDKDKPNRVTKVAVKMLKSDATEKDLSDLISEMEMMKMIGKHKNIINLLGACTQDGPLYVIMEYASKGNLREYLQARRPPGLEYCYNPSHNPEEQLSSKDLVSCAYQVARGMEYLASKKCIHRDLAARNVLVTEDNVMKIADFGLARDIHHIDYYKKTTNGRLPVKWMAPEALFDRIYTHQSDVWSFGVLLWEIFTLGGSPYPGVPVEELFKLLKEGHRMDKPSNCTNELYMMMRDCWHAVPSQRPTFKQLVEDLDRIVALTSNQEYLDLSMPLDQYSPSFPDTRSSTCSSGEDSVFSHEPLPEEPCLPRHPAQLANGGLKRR
Sequence of MAP3K7/MAP3K7IP1 (TAK1-TAB1) (O43318 1-303 limits assumed): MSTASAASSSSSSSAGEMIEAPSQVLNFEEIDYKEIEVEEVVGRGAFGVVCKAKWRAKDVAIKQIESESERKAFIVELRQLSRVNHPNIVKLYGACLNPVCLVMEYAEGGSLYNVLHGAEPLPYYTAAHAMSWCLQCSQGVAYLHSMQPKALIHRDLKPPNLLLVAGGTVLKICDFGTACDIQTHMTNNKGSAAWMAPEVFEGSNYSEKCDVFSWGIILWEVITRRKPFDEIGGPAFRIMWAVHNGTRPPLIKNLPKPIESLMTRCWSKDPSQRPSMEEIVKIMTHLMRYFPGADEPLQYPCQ
Sequence of MAP3K7/MAP3K7IP1 (TAK1-TAB1) (Q15750 437-504 partner limits assumed): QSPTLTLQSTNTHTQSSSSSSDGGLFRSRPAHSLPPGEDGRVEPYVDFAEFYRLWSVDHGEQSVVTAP
Sequence of NEK7 (Q8TDX7 whole entry): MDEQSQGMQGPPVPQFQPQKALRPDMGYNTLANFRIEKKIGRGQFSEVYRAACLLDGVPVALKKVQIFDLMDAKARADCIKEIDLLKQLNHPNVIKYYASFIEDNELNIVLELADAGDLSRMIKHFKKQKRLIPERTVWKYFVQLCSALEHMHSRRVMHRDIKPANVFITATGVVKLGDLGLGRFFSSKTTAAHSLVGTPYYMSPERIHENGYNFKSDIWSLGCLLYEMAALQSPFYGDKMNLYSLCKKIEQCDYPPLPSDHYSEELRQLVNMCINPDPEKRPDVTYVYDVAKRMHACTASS
Sequence of FGFR3 V555M (P22607 23-806 V555M): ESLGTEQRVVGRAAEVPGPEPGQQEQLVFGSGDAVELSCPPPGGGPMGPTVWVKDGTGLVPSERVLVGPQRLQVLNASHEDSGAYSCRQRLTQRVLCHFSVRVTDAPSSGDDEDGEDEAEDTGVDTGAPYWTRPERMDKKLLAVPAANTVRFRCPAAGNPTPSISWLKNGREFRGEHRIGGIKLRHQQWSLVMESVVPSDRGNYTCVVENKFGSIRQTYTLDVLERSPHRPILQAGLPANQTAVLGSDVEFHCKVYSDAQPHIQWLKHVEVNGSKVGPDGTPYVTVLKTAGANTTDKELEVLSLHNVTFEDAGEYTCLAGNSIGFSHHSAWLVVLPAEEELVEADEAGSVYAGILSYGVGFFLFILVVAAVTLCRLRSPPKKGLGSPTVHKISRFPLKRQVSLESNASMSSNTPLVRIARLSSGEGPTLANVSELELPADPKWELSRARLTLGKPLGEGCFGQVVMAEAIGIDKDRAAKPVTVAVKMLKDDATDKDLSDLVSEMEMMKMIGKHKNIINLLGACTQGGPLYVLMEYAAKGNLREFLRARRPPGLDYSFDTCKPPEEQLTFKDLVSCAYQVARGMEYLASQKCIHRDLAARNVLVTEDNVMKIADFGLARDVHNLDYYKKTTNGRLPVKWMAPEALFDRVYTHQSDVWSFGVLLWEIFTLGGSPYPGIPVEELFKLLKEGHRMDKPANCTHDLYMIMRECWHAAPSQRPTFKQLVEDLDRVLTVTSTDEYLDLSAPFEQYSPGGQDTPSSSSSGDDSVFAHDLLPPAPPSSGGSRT
Sequence of FLT3 (P36888 27-993): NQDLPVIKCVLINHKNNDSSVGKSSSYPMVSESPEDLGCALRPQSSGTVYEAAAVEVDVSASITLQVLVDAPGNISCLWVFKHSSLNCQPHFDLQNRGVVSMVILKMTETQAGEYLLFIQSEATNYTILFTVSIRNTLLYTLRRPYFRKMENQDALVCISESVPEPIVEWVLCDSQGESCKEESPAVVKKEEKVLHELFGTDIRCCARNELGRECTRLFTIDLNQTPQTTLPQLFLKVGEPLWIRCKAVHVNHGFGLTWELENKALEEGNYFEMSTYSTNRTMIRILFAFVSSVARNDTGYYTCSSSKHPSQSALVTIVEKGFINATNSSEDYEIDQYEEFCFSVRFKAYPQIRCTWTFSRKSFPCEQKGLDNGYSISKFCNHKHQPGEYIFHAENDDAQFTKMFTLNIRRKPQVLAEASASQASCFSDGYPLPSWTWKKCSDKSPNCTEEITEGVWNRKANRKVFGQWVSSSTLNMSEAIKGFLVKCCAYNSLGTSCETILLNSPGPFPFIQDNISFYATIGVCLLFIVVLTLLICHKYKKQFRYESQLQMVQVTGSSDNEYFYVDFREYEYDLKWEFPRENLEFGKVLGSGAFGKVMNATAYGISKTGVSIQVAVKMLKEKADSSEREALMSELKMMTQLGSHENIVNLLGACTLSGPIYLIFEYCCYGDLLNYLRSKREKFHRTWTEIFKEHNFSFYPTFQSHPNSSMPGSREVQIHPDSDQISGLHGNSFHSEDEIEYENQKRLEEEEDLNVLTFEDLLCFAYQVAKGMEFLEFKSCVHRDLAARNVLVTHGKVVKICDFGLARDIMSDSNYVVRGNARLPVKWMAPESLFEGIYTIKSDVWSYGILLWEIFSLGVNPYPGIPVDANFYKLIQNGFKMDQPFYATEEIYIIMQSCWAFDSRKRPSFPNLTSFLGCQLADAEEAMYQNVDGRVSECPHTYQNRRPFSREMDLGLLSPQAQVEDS

Usually inhibition stands for the drop in the measured response relative to a control, in per cent. For the compound `O=C(c1ccc(/C=C/c2n[nH]c3ccccc23)cc1)N1CCNCC1` [KW-2449], the inhibition at 10 µM is 59% against STK23 (MSSK1); 2% on PIM3; 40% at KIT D816V; 68% at CDC42 BPG (MRCKG); -30% at RET G691S; 101% against MAP4K2 (GCK). Moreover, the inhibition at 10 µM at CDC42 BPB (MRCKB) amounted to 27%; on DAPK2 it was 64%; at FLT3, 100%; against FGFR3 V555M, 100%; on MAP3K10 (MLK2), 87%; at ABL1, 100%. Further, the inhibition at 10 µM against NEK7 was found to be 7%; at MAPK1 (ERK2) it was 45%; on HUNK, 84%; on PLK4 it was 61%; at FGFR1 V561M, 30%; in assay [1], 26%. Also, the figures for the inhibition at 10 µM on ADCK3 and against AKT2 (PKB beta) were -2% and 29%, respectively.

The values are drawn from PMC6540285, “Evaluation of Protein Kinase Inhibitors with PLK4 Cross-Over Potential in a Pre-Clinical Model of Cancer” (International Journal of Molecular Sciences, 2019).
